Assays:
Type in all cases: cell-based, human
[1] = test system: activated CaMKIIγ in KCL22 cells; assay: Western blot of CaMKIIγ autophosphorylation in KCL22 cells; settings: five days ATRA
Method: FIG. 9. Terminal differentiation/apoptosis of myeloid leukemia cells is associated with decreased CaMKIIγ activation. (A) Lysates from the HL60, NB4 and U937 myeloid cell lines treated with ATRA (1 μM) for the indicated period of time were subjected to Western blots. (B) Lysates from the indicated myeloid cell lines treated for five days with the indicated concentration of ATRA were subjected to Western blots. (C) Lysates from HL60 cells treated with TPA (0.1 μM) for the indicated time were subjected to Western blots. (D) Lysates from NB4 cells treated with arsenic trioxide (1 uM) for the indicated time were subjected to Western blots.
Antibodies and Western blots. Protein extracts, immunoprecipitations and Western blots were performed as previously detailed (Si J, Collins S J. IL-3-induced enhancement of retinoic acid receptor activity is mediated through Stat5, which physically associates with retinoic acid receptors in an IL-3-dependent manner. Blood 100: 4401-9 (2002)). Antibodies against CaMKI, CaMKIIγ, CaMKIV, c-myc, Stat3, Stat5, calmodulin, as well as the phosphospecific CaMKII (T286, 287) and phosphospecific CaMKI (T177) antibodies were from Santa Cruz Biotechnology. […]

[2] = test system: HL60R cells (mutated RARα); assay: Differentiation of HL60R cells; settings: HL60R harbor a mutated RARα
Text: Pharmacological CaMK inhibitors trigger myeloid leukemia cell differentiation. Particularly compelling evidence for the physiological importance of the CaMKII—mediated regulation of RAR activity is our experimental observation that KN-62, a pharmacological inhibitor of the CaMKs, enhances both RAR transcriptional activity (FIG. 1B) and the differentiation of certain myeloid leukemia cell lines (FIG. 7). Acute myelogenous leukemia (AML) is a heterogenous disease, and successful therapy with RA has been generally confined to those leukemias harboring RARα chromosome translocations.

KG-1 cells = assay: KG-1 proliferation in liquid suspension culture
Method: (§1) FIG. 11. […] (A) K562 cells were seeded in liquid suspension culture at 5×10^4 cells/ml in the presence or absence of the indicated concentration of compounds, and cell counts were obtained at the indicated time. (B) The indicated myeloid leukemia cell lines were seeded in liquid suspension culture at 5×10^4 cells/ml in the presence or absence of KN93, and cell counts obtained at the indicated time. (C) K562 cells were electroporated with the LXSN expression vector harboring the kinase dead, Lys^43 mutated, truncated CaMKII construct (kdCaMKII) as well as with the control (empty) LXSN vector. The electroporated cells were diluted into 96 well plates in liquid suspension culture in the presence of G418 (1 mg/ml). Following eight days of culture the total number of discrete, actively proliferating G418 resistant colonies within individual wells was determined.
(§2) Cell lines. All leukemia cell lines are cultured at 37° in RPMI supplemented with 5% heat-inactivated fetal calf serum.

THP1 cells = assay: THP1 proliferation in liquid suspension culture
Method: as §1, §2

[3] = test system: Stat3 transcriptional activity in K562 cells; assay: Stat3 response element luciferase reporter in K562 cells; settings: 48 hours of culture
Method: FIG. 13. Stat3 is directly phosphorylated and activated by CaMKIIγ at Ser727. (A, i). Cell lysates from the indicated human leukemia cell lines were subjected to Western blots utilizing the indicated Stat3 antibodies. ii). Cell lysates from the same primary AML samples depicted in FIG. 1B were subjected to Western blots utilizing the indicated Stat3 antibodies. B). The IL-3 dependent TonB210.1 cells were deprived of IL-3 for 24 hours. The cells were then treated with the indicated compounds immediately prior to the addition of doxycycline. After an additional 24 hours cell lysates were harvested and subjected to Western blots with the indicated Stat3 antibodies. C). K562 cells were electroporated with a luciferase reporter driven by a Stat3 response element. The indicated concentrations of KN93 and the Stat 3 inhibitor, cucurbitacin I, were added and relative luciferase activity determined on cell lysates following 48 hours of culture. D, i) K562 cell lysates were immunoprecipitated with control IgG or a Stat3 antibody. […]
Transient transfections and luciferase assays. […] Stat3 transcriptional activity was determined in K562 cells transfected with the pSIE-tk-LUC luciferase reporter which harbors a Stat3 binding site ([…]). […]

SMILES: CC1=C(/C=C/C(C)=C/C=C/C(C)=C/C(=O)O)C(C)(C)CCC1 [ATRA, All-trans retinoic acid]
- activated CaMKIIγ level [1]: did not exhibit any decrease

SMILES: CN([C@@H](Cc1ccc(OS(=O)(=O)c2cccc3cnccc23)cc1)C(=O)N1CCN(c2ccccc2)CC1)S(=O)(=O)c1cccc2cnccc12 [KN-62]
- KN62-mediated differentiation of HL60R [2]: do not observe any

SMILES: COc1ccc(S(=O)(=O)N(CCO)c2ccccc2CN(C)C/C=C/c2ccc(Cl)cc2)cc1 [KN-93]
- cell proliferation (KG-1 cells): inhibition
- cell viability or morphologic differentiation (KG-1 cells): without any significant effect
- cell proliferation (THP1 cells): inhibition
- cell viability or morphologic differentiation (THP1 cells): without any significant effect
- Stat3 responsive reporter activity [3]: inhibited
